According to patent publication US8088889B2, “Teneurin c-terminal associated peptides (TCAP) and uses thereof” (priority 2002, dated 2012):
Ends that are not written are not given here.

What was measured:
Assay type in all cases: cell-based, mouse
Gn11 cells [1] = assay: cAMP accumulation in Gn11 immortalized neurons (Example 12); conditions: 1 nM, FIG. 25A/B
Method: Gn11 immortalized neurons were cultured as previously reported (Tellam et al., 1998) Direct cAMP measurements were performed with the nonacetylated version of a commercial kit (Assay Designs, Ann Arbor, Mich.). After starved by serum-free DMEM for 1 hr and replaced with fresh DMEM without serum, cells were treated for 15 min with TCAP, urocortin or vehicle±CRFR1 antagonist PD171729 in the continued presence of forskolin (1_M) and IBMX (100_M. Protein assays: Total protein was determined using the BCA protein assay method (Pierce Co). MTT Assays: Gn11 cells were seeded into 96-well plates and cultured in full serum DMEM until the cells were 30% confluent. Vehicle, 1 nM, 10 nM or 100 nM TCAP-1 were added into each group (n=8). (FIG. 25A) The MTT assay (Sigma Chemicals) was performed at 0, 6, 12, 24 and 48 hours. Flow Cytometry: DNA content of the Gn11 cells was quantified by staining with propridium iodide and analyzed on a FACSCAN flow cytometer (Beckman Instruments).

Gn11 cells [2] = assay: cAMP assay in Gn11 cells (Example 7, I); conditions: 10^-6 M
Method: (§1) Medium and peptide was removed and the cells were lysed using 350 uL of a 0.1 M HCL 0.1% Triton X-100 solution. […] All reactions were done in triplicates. Wells were set up for blanks, non-specific binding, total activity (TA), zero binding, five standards, and 12 samples. […] The plate was allowed to shake overnight. The following morning, the wells were rinsed three times with a 10 times diluted wash buffer solution. 50 uL of conjugate was added to the TA wells and 200 uL of p-Npp substrate was added to each well. The plate was covered again and incubated at room temp for one hour. At this point, 50 uL of stop solution was added to all wells and the absorbance was read at 405 nm using a Spectramax spectrophotometer. Three levels of controls were utlized: A blank tube which provides a measure of any reactivity between p-Npp substrate and IgG coated wells.; TA: measure of activity of alkaline phosphotase in conjugate, if any; NSB: measure of binding of conjugate to plate or to antibody; Bo: measure of binding conjugate to antibody (no sample and conjugate competition).

Gn11 cells [3] = assay: cGMP assay in Gn11 cells (Example 7, I); conditions: 10^-6 M
Method: as §1

Row | Substance | cAMP accumulation at 1 nM (in words) (Gn11 cells [1]) | cAMP accumulation, % of the vehicle-treated cells (Gn11 cells [2]) [%] | cGMP accumulation, % of the control cells (Gn11 cells [3]) [%] | cGMP accumulation (in words) (Gn11 cells [3]; FIG. 16B)
1 | mouse urocortin: CRF family peptide compared with mouse TCAP-1 in Gn11 cells (DDPPLSIDLTFHLLRTLLELARTQSQRERAEQNRIIFDSV; ends and bridges not checked) [reference compound] | increased cAMP accumulation | – | – | –
2 | rat urocortin: CRF family peptide used for the purpose of a positive control (DDPPLSIDLTFHLLRTLLELARTQSQRERAEQNRIIFDSV; ends and bridges not checked; UniProt P55090 81-120, looked up) [reference compound] | – | 89.2±6.3 | 50.0±8.5 | significant (p<0.05) decrease
